{
  "source": "paper PMC5218480",
  "about": "(PLoS ONE, 2017)",
  "tested_on": "MV-4-11 cells",
  "experiment": "Gene expression microarray analysis (Affymetrix PrimeView) and GSEA",
  "type": "cell-based, human",
  "design": "RFU PODN (11730768_x_at) / Fold change /veh PODN (11730768_x_at) / RFU LINC00158 (11744669_a_at) / Fold change /veh LINC00158 (11744669_a_at) / RFU DUSP10 (11751237_a_at) / Fold change /veh DUSP10 (11751237_a_at) / RFU ID3 (11757404_x_at) / Fold change /veh ID3 (11757404_x_at) / RFU PLEKHG5 (11737974_s_at) / Fold change /veh PLEKHG5 (11737974_s_at) / RFU LRRC4B (11730491_at) / Fold change /veh LRRC4B (11730491_at) / RFU GIMAP4 (11747438_a_at) / Fold change /veh GIMAP4 (11747438_a_at) / RFU KRT8 (11758183_x_at) / Fold change /veh KRT8 (11758183_x_at) / RFU CNN1 (11734310_a_at) / Fold change /veh CNN1 (11734310_a_at) / RFU VPS37D (11726825_at) / Fold change /veh VPS37D (11726825_at) / RFU C10orf10 (11716522_x_at) / Fold change /veh C10orf10 (11716522_x_at) / RFU KIR2DL2 /// KIR2DL4 /// KIR2DL5A /// KIR2DL5B /// KIR2DS1 /// KIR2DS2 /// KIR2DS3 /// KIR2DS4 /// KIR3DL3 /// KIR3DL3 /// KIR3DS1 (11738374_at) / Fold change /veh KIR2DL2 /// KIR2DL4 /// KIR2DL5A /// KIR2DL5B /// KIR2DS1 /// KIR2DS2 /// KIR2DS3 /// KIR2DS4 /// KIR3DL3 /// KIR3DL3 /// KIR3DS1 (11738374_at) / RFU C1QL1 (11718748_at) / Fold change /veh C1QL1 (11718748_at) / RFU TMPRSS4 (11747572_a_at) / Fold change /veh TMPRSS4 (11747572_a_at) / RFU HAMP (11756126_x_at) / Fold change /veh HAMP (11756126_x_at) / RFU RNFT2 (11725882_a_at) / Fold change /veh RNFT2 (11725882_a_at) / RFU NR4A2 (11747474_a_at) / Fold change /veh NR4A2 (11747474_a_at) / RFU ABCC12 (11746883_a_at) / Fold change /veh ABCC12 (11746883_a_at) / RFU TMEM136 (11760407_x_at) / Fold change /veh TMEM136 (11760407_x_at) / RFU CLDN22 /// WWC2 (11732394_at) / Fold change /veh CLDN22 /// WWC2 (11732394_at) / RFU HLA-DPB1 (11760878_x_at) / Fold change /veh HLA-DPB1 (11760878_x_at) / RFU SPINT1 (11716480_a_at) / Fold change /veh SPINT1 (11716480_a_at) / RFU GAP43 (11754022_s_at) / Fold change /veh GAP43 (11754022_s_at) / RFU A4GNT (11735810_at) / Fold change /veh A4GNT (11735810_at) / RFU PRB3 (11715151_x_at) / Fold change /veh PRB3 (11715151_x_at) / RFU TUBB4B (11761932_at) / Fold change /veh TUBB4B (11761932_at) / RFU CAPN14 (11732068_a_at) / Fold change /veh CAPN14 (11732068_a_at) / RFU TMCC2 (11721928_a_at) / Fold change /veh TMCC2 (11721928_a_at) / RFU IRGQ (11745062_a_at) / Fold change /veh IRGQ (11745062_a_at) / RFU FAM174B (11720279_a_at) / Fold change /veh FAM174B (11720279_a_at) / RFU TMPRSS4 (11748680_a_at) / Fold change /veh TMPRSS4 (11748680_a_at) / RFU FAM212B (11763350_a_at) / Fold change /veh FAM212B (11763350_a_at) / RFU PLEKHG5 (11743358_a_at) / Fold change /veh PLEKHG5 (11743358_a_at) / RFU ZSCAN30 (11745921_a_at) / Fold change /veh ZSCAN30 (11745921_a_at) / RFU CMKLR1 (11741424_a_at) / Fold change /veh CMKLR1 (11741424_a_at) / RFU LOC101060620 /// MAPK8IP1 (11723275_at) / Fold change /veh LOC101060620 /// MAPK8IP1 (11723275_at) / RFU SPTSSB (11747773_x_at) / Fold change /veh SPTSSB (11747773_x_at) / RFU PRSS12 (11739890_at) / Fold change /veh PRSS12 (11739890_at) / RFU BIN1 (11741810_x_at) / Fold change /veh BIN1 (11741810_x_at) / RFU WNT11 (11732464_a_at) / Fold change /veh WNT11 (11732464_a_at) / RFU C10orf10 (11716521_a_at) / Fold change /veh C10orf10 (11716521_a_at) / RFU C5orf56 (11738089_at) / Fold change /veh C5orf56 (11738089_at) / RFU CYB561 (11721691_x_at) / Fold change /veh CYB561 (11721691_x_at) / RFU ANKRD19P (11752326_a_at) / Fold change /veh ANKRD19P (11752326_a_at) / RFU OR2T12 /// OR2T33 /// OR2T8 (11738714_s_at) / Fold change /veh OR2T12 /// OR2T33 /// OR2T8 (11738714_s_at) / RFU VCAN (11748164_a_at) / Fold change /veh VCAN (11748164_a_at) / RFU JSRP1 (11732532_at) / Fold change /veh JSRP1 (11732532_at) / RFU KRTAP10-11 (11738290_x_at) / Fold change /veh KRTAP10-11 (11738290_x_at) / RFU MYO3A (11730013_a_at) / Fold change /veh MYO3A (11730013_a_at) / RFU EBF3 (11725865_a_at) / Fold change /veh EBF3 (11725865_a_at) / RFU CAMK2N1 (11719241_x_at) / Fold change /veh CAMK2N1 (11719241_x_at) / RFU C5orf56 (11738088_a_at) / Fold change /veh C5orf56 (11738088_a_at) / RFU OLFML3 (11715873_a_at) / Fold change /veh OLFML3 (11715873_a_at) / RFU LOC100653217 /// NTM (11731650_a_at) / Fold change /veh LOC100653217 /// NTM (11731650_a_at) / RFU MAPK11 (11762145_a_at) / Fold change /veh MAPK11 (11762145_a_at) / RFU FIZ1 (11724087_x_at) / Fold change /veh FIZ1 (11724087_x_at) / RFU OASL (11726364_x_at) / Fold change /veh OASL (11726364_x_at) / RFU SOX15 (11748057_x_at) / Fold change /veh SOX15 (11748057_x_at) / RFU CD79A (11719716_a_at) / Fold change /veh CD79A (11719716_a_at) / RFU HIST1H1D (11736915_at) / Fold change /veh HIST1H1D (11736915_at) / RFU CASKIN2 (11723855_a_at) / Fold change /veh CASKIN2 (11723855_a_at) / RFU LOC730098 (11760151_x_at) / Fold change /veh LOC730098 (11760151_x_at) / RFU OR4N2 (11742367_at) / Fold change /veh OR4N2 (11742367_at) / RFU PRRT2 (11749266_a_at) / Fold change /veh PRRT2 (11749266_a_at) / RFU SNX32 (11753110_a_at) / Fold change /veh SNX32 (11753110_a_at) / RFU CDHR5 (11726645_a_at) / Fold change /veh CDHR5 (11726645_a_at) / RFU RCAN1 (11760418_a_at) / Fold change /veh RCAN1 (11760418_a_at) / RFU FAM167A (11723789_a_at) / Fold change /veh FAM167A (11723789_a_at) / RFU FAM26E (11764081_at) / Fold change /veh FAM26E (11764081_at) / RFU ISYNA1 (11749810_s_at) / Fold change /veh ISYNA1 (11749810_s_at) / RFU ACY1 (11761880_at) / Fold change /veh ACY1 (11761880_at) / RFU 11764098_at / Fold change /veh 11764098_at / RFU SAMD14 (11745864_x_at) / Fold change /veh SAMD14 (11745864_x_at) / RFU NPB (11741838_a_at) / Fold change /veh NPB (11741838_a_at) / RFU TMPRSS6 (11731388_a_at) / Fold change /veh TMPRSS6 (11731388_a_at) / RFU KRTAP10-2 (11738614_at) / Fold change /veh KRTAP10-2 (11738614_at) / RFU ARHGAP8 /// PRR5-ARHGAP8 (11727945_x_at) / Fold change /veh ARHGAP8 /// PRR5-ARHGAP8 (11727945_x_at) / RFU KRTAP5-7 /// NADSYN1 (11734609_at) / Fold change /veh KRTAP5-7 /// NADSYN1 (11734609_at) / RFU RASL12 (11751679_a_at) / Fold change /veh RASL12 (11751679_a_at) / RFU CDKN2B (11736163_a_at) / Fold change /veh CDKN2B (11736163_a_at) / RFU PRF1 (11729649_at) / Fold change /veh PRF1 (11729649_at) / RFU, ZNF638 /// ZNF638-IT1 / Fold change vs veh, ZNF638 /// ZNF638-IT1 / RFU, PANK3 / Fold change vs veh, PANK3 / RFU, SH3YL1 / Fold change vs veh, SH3YL1 / RFU, ZEB2 / Fold change vs veh, ZEB2 / RFU, NRIP1 / Fold change vs veh, NRIP1 / RFU, PTTG1IP / Fold change vs veh, PTTG1IP / RFU, CAPN2 / Fold change vs veh, CAPN2 / RFU, MED14 / Fold change vs veh, MED14 / RFU, SNORA58 / Fold change vs veh, SNORA58 / RFU, C1orf63 / Fold change vs veh, C1orf63 / RFU, LRRFIP1 / Fold change vs veh, LRRFIP1 / RFU, NDUFAF7 / Fold change vs veh, NDUFAF7 / RFU, SLC12A2 / Fold change vs veh, SLC12A2 / RFU, IBTK / Fold change vs veh, IBTK / RFU, ESF1 / Fold change vs veh, ESF1 / Fold change vs veh, TMEM50B / RFU, TAOK1 / Fold change vs veh, TAOK1 / RFU, ACBD3 / Fold change vs veh, ACBD3 / RFU, TMA16 / Fold change vs veh, TMA16 / RFU, RWDD3 / Fold change vs veh, RWDD3 / RFU, BCAT1 / Fold change vs veh, BCAT1 / RFU, EDEM3 / Fold change vs veh, EDEM3 / RFU, TMEM33 / Fold change vs veh, TMEM33 / RFU, WDR75 / Fold change vs veh, WDR75 / RFU, AHCTF1 / Fold change vs veh, AHCTF1 / RFU, TFRC / Fold change vs veh, TFRC / RFU, ZDHHC17 / Fold change vs veh, ZDHHC17 / RFU, NOM1 / Fold change vs veh, NOM1 / RFU, ARL8B / Fold change vs veh, ARL8B / RFU, ZBTB11 / Fold change vs veh, ZBTB11 / RFU, TAMM41 / Fold change vs veh, TAMM41 / RFU, KIAA1704 /// LOC100996395 / Fold change vs veh, KIAA1704 /// LOC100996395 / RFU, ING1 / Fold change vs veh, ING1 / RFU, TRMT61B / Fold change vs veh, TRMT61B / RFU, FUBP3 / Fold change vs veh, FUBP3 / RFU, TP53 / Fold change vs veh, TP53 / RFU, TNKS2 / Fold change vs veh, TNKS2 / RFU, ZFP14 / Fold change vs veh, ZFP14 / RFU, ACTR2 / Fold change vs veh, ACTR2 / RFU, PPP3R1 / Fold change vs veh, PPP3R1 / RFU, PIK3R1 / Fold change vs veh, PIK3R1 / RFU, HNRNPA1 / Fold change vs veh, HNRNPA1 / RFU, RNF170 / Fold change vs veh, RNF170 / RFU, ZNF28 / Fold change vs veh, ZNF28 / RFU, RNGTT / Fold change vs veh, RNGTT / RFU, OGT / Fold change vs veh, OGT / RFU, BRD1 / Fold change vs veh, BRD1 / RFU, MARS / Fold change vs veh, MARS / RFU, ZNF655 / Fold change vs veh, ZNF655 / RFU, FAHD1 / Fold change vs veh, FAHD1 / RFU, BDP1 / Fold change vs veh, BDP1 / RFU, LRRCC1 / Fold change vs veh, LRRCC1 / RFU, ARID1A / Fold change vs veh, ARID1A / RFU, ZNF146 / Fold change vs veh, ZNF146 / RFU, ZNF330 / Fold change vs veh, ZNF330 / RFU, GPN3 / Fold change vs veh, GPN3 / RFU, C9orf123 / Fold change vs veh, C9orf123 / RFU, N4BP2L2 / Fold change vs veh, N4BP2L2 / RFU, ARFIP1 / Fold change vs veh, ARFIP1 / RFU, FAM179B / Fold change vs veh, FAM179B / RFU, BCL10 / Fold change vs veh, BCL10 / RFU, UHRF1BP1L / Fold change vs veh, UHRF1BP1L / RFU, BET1 / Fold change vs veh, BET1 / RFU, CNOT2 / Fold change vs veh, CNOT2 / RFU, ZNF268 / Fold change vs veh, ZNF268 / Fold change vs veh, ZNF507 / RFU, DGCR2 / Fold change vs veh, DGCR2 / RFU, WDSUB1 / Fold change vs veh, WDSUB1 / Fold change vs veh, HSP90B1 /// MIR3652 / RFU, ADSS / Fold change vs veh, ADSS / RFU, GK / Fold change vs veh, GK / RFU, ZNF148 / Fold change vs veh, ZNF148 / RFU, TAF9 / Fold change vs veh, TAF9 / RFU, SLC1A5 / Fold change vs veh, SLC1A5 / RFU, SLMO2 / Fold change vs veh, SLMO2 / RFU, ABCC4 / Fold change vs veh, ABCC4 / RFU, LOC101060439 /// RAP1B / Fold change vs veh, LOC101060439 /// RAP1B / RFU, RFX7 / Fold change vs veh, RFX7 / RFU, GTPBP10 / Fold change vs veh, GTPBP10 / RFU, CNEP1R1 / Fold change vs veh, CNEP1R1 / RFU, BIVM-ERCC5 /// ERCC5 / Fold change vs veh, BIVM-ERCC5 /// ERCC5 / RFU, ILF3 / Fold change vs veh, ILF3 / RFU 11762660_at / Fold change /veh 11762660_at / RFU VCAN (11757783_s_at) / Fold change /veh VCAN (11757783_s_at) / RFU DDX43 (11728927_at) / Fold change /veh DDX43 (11728927_at) / RFU KRT8 (11758188_x_at) / Fold change /veh KRT8 (11758188_x_at) / RFU NKD1 (11759106_at) / Fold change /veh NKD1 (11759106_at) / RFU SRD5A1 (11742802_a_at) / Fold change /veh SRD5A1 (11742802_a_at) / RFU TPSAB1 /// TPSB2 (11721975_s_at) / Fold change /veh TPSAB1 /// TPSB2 (11721975_s_at) / RFU GSTM3 (11746129_a_at) / Fold change /veh GSTM3 (11746129_a_at) / RFU IL23R (11737362_x_at) / Fold change /veh IL23R (11737362_x_at) / RFU TMEM51 (11727254_a_at) / Fold change /veh TMEM51 (11727254_a_at) / RFU PIWIL2 (11732686_x_at) / Fold change /veh PIWIL2 (11732686_x_at) / RFU ORM1 (11744905_x_at) / Fold change /veh ORM1 (11744905_x_at) / RFU CCDC152 (11743942_at) / Fold change /veh CCDC152 (11743942_at) / RFU ECM1 (11717891_a_at) / Fold change /veh ECM1 (11717891_a_at) / RFU IL23R (11748794_a_at) / Fold change /veh IL23R (11748794_a_at) / RFU TNFAIP8L3 (11732012_x_at) / Fold change /veh TNFAIP8L3 (11732012_x_at) / RFU MBOAT4 (11741988_at) / Fold change /veh MBOAT4 (11741988_at) / RFU 11764193_at / Fold change /veh 11764193_at / RFU TMEM53 (11763286_at) / Fold change /veh TMEM53 (11763286_at) / RFU MAGEB2 (11727129_at) / Fold change /veh MAGEB2 (11727129_at) / RFU TMEM200A (11744735_a_at) / Fold change /veh TMEM200A (11744735_a_at) / RFU CCDC152 (11751479_a_at) / Fold change /veh CCDC152 (11751479_a_at) / RFU FAM211A (11726209_a_at) / Fold change /veh FAM211A (11726209_a_at) / RFU RGS16 (11746705_a_at) / Fold change /veh RGS16 (11746705_a_at) / RFU VCAN (11755009_s_at) / Fold change /veh VCAN (11755009_s_at) / RFU RHOB (11743442_s_at) / Fold change /veh RHOB (11743442_s_at) / RFU RGS16 (11720943_a_at) / Fold change /veh RGS16 (11720943_a_at) / RFU RGS16 (11720944_at) / Fold change /veh RGS16 (11720944_at) / RFU, VPS4B / Fold change vs veh, VPS4B / RFU, CREB1 / Fold change vs veh, CREB1 / RFU, DNAJC13 / Fold change vs veh, DNAJC13 / RFU, GNAQ / Fold change vs veh, GNAQ / RFU, CDK5R1 / Fold change vs veh, CDK5R1 / RFU, ZRANB3 / Fold change vs veh, ZRANB3 / RFU, CUL4A / Fold change vs veh, CUL4A / RFU, CCNY / Fold change vs veh, CCNY / RFU, UFL1 / Fold change vs veh, UFL1 / RFU, COG3 / Fold change vs veh, COG3 / RFU, DIAPH2 / Fold change vs veh, DIAPH2 / RFU, SKA2 / Fold change vs veh, SKA2 / RFU, AFF3 / Fold change vs veh, AFF3 / RFU, LMF1 / Fold change vs veh, LMF1 / RFU, IPO11 / Fold change vs veh, IPO11 / RFU, DFFB / Fold change vs veh, DFFB / RFU, FOXP1 / Fold change vs veh, FOXP1 / RFU, CARD8 / Fold change vs veh, CARD8 / RFU, STRN3 / Fold change vs veh, STRN3 / RFU, ADK / Fold change vs veh, ADK / RFU, RASSF2 / Fold change vs veh, RASSF2 / RFU, WIPF1 / Fold change vs veh, WIPF1 / RFU, LARP1B / Fold change vs veh, LARP1B / RFU, RASA1 / Fold change vs veh, RASA1 / RFU, RB1 / Fold change vs veh, RB1 / RFU, PPFIA1 / Fold change vs veh, PPFIA1 / RFU, MAT2A / Fold change vs veh, MAT2A / RFU, CCT5 / Fold change vs veh, CCT5 / RFU, WDR92 / Fold change vs veh, WDR92 / RFU, CUX1 / Fold change vs veh, CUX1 / RFU, TTC7A / Fold change vs veh, TTC7A / RFU, TMEM135 / Fold change vs veh, TMEM135 / RFU, DEPTOR / Fold change vs veh, DEPTOR / RFU, CPM / Fold change vs veh, CPM / RFU, DNAJB6 / Fold change vs veh, DNAJB6 / RFU, CACNA2D3 / Fold change vs veh, CACNA2D3 / RFU, DTX4 / Fold change vs veh, DTX4 / RFU, TFCP2 / Fold change vs veh, TFCP2 / RFU, GMCL1 /// GMCL1P1 / Fold change vs veh, GMCL1 /// GMCL1P1 / RFU, AEBP2 / Fold change vs veh, AEBP2 / RFU, SNHG1 /// SNORD22 /// SNORD25 /// SNORD26 /// SNORD27 /// SNORD28 /// SNORD29 /// SNORD31 / Fold change vs veh, SNHG1 /// SNORD22 /// SNORD25 /// SNORD26 /// SNORD27 /// SNORD28 /// SNORD29 /// SNORD31 / Fold change (Aza/veh), C12orf56 (ProbeSet 11735607_a_at) / Fold change (ACY-1035/veh), C12orf56 (ProbeSet 11735607_a_at) / Fold change (Aza/veh), FGFR1OP (ProbeSet 11751329_s_at) / Fold change (ACY-1035/veh), FGFR1OP (ProbeSet 11751329_s_at) / Fold change (Aza/veh), VPS36 (ProbeSet 11739960_a_at) / Fold change (ACY-1035/veh), VPS36 (ProbeSet 11739960_a_at) / RFU SYPL1 (11715823_x_at) / Fold change /veh SYPL1 (11715823_x_at) / RFU IGFBP7 (11715501_s_at) / Fold change /veh IGFBP7 (11715501_s_at) / RFU REEP3 (11722064_at) / Fold change /veh REEP3 (11722064_at) / RFU IGLL1 (11728026_x_at) / Fold change /veh IGLL1 (11728026_x_at): dose or concentration left out as unconfirmed",
  "conditions": "MV-4-11 cells, 48 hours",
  "data": [
    {"smiles": "Nc1ncn([C@@H]2O[C@H](CO)[C@@H](O)[C@H]2O)c(=O)n1", "note": "[azacitidine]", "values": [
      {"measurement": "Fold change /veh PIWIL2 (11732686_x_at)", "value": 1.30}
    ]}
  ]
}
